Assay results from the NIST ThermoML archive (doi:10.1016/j.tca.2010.01.023).
Numbers after ± are expanded uncertainties.

Conditions: Crystal; DTA

CCCCn1cc[n+](C)c1.[Cl-] [1-butyl-3-methylimidazolium chloride]
Normal melting temperature: 65.0 ± 1 °C
